According to the NIST ThermoML archive (doi:10.1021/je900691n):

Assay: xn = mol fraction of the nth substance listed
Details: Liquid, Pycnometric method

COC(=O)OC [dimethyl carbonate] + O=C=O
Details | mass density [kg/m3]
323.15 K, 9620 kPa, x1 = 0.0242 | 495
323.15 K, 9710 kPa, x1 = 0.0242 | 509
323.15 K, 9740 kPa, x1 = 0.118 | 852
323.15 K, 9750 kPa, x1 = 0.0481 | 666
323.15 K, 9760 kPa, x1 = 0.086 | 792
323.15 K, 9760 kPa, x1 = 0.1484 | 883
323.15 K, 9800 kPa, x1 = 0.0242 | 523
323.15 K, 9900 kPa, x1 = 0.0242 | 536
323.15 K, 9930 kPa, x1 = 0.0242 | 541
323.15 K, 10010 kPa, x1 = 0.0481 | 683
323.15 K, 10220 kPa, x1 = 0.118 | 859
323.15 K, 10280 kPa, x1 = 0.086 | 803
323.15 K, 10280 kPa, x1 = 0.1484 | 888
323.15 K, 10350 kPa, x1 = 0.0481 | 700
323.15 K, 10740 kPa, x1 = 0.086 | 813
323.15 K, 10740 kPa, x1 = 0.118 | 866
323.15 K, 10740 kPa, x1 = 0.1484 | 893
323.15 K, 10780 kPa, x1 = 0.0481 | 719
323.15 K, 11230 kPa, x1 = 0.086 | 822
323.15 K, 11230 kPa, x1 = 0.118 | 872
323.15 K, 11230 kPa, x1 = 0.1484 | 897
323.15 K, 11360 kPa, x1 = 0.0481 | 739
323.15 K, 11670 kPa, x1 = 0.086 | 829
323.15 K, 11750 kPa, x1 = 0.118 | 878
323.15 K, 11760 kPa, x1 = 0.1484 | 901
323.15 K, 11870 kPa, x1 = 0.0481 | 754
323.15 K, 12240 kPa, x1 = 0.1484 | 905
323.15 K, 12270 kPa, x1 = 0.118 | 883
323.15 K, 12310 kPa, x1 = 0.086 | 839
323.15 K, 12390 kPa, x1 = 0.0481 | 768
323.15 K, 12740 kPa, x1 = 0.086 | 844
323.15 K, 12750 kPa, x1 = 0.118 | 888
323.15 K, 12770 kPa, x1 = 0.1484 | 910
323.15 K, 12920 kPa, x1 = 0.0481 | 780
323.15 K, 13190 kPa, x1 = 0.086 | 851
323.15 K, 13260 kPa, x1 = 0.1484 | 913
323.15 K, 13310 kPa, x1 = 0.118 | 894
323.15 K, 13550 kPa, x1 = 0.0481 | 792
323.15 K, 13740 kPa, x1 = 0.086 | 857
323.15 K, 13760 kPa, x1 = 0.1484 | 918
323.15 K, 13830 kPa, x1 = 0.118 | 898
323.15 K, 14230 kPa, x1 = 0.086 | 863
323.15 K, 14270 kPa, x1 = 0.118 | 902
323.15 K, 14330 kPa, x1 = 0.1484 | 922
323.15 K, 14730 kPa, x1 = 0.086 | 868
323.15 K, 14750 kPa, x1 = 0.118 | 907
323.15 K, 14820 kPa, x1 = 0.1484 | 925
323.15 K, 15220 kPa, x1 = 0.086 | 873
323.15 K, 15250 kPa, x1 = 0.118 | 911
323.15 K, 15510 kPa, x1 = 0.1484 | 930
323.15 K, 15660 kPa, x1 = 0.086 | 878
323.15 K, 15740 kPa, x1 = 0.118 | 914
323.15 K, 16130 kPa, x1 = 0.086 | 883
323.15 K, 16420 kPa, x1 = 0.1484 | 936
323.15 K, 16430 kPa, x1 = 0.118 | 920
327.95 K, 8540 kPa, x1 = 0.1484 | 839
327.95 K, 8840 kPa, x1 = 0.1484 | 844
327.95 K, 8920 kPa, x1 = 0.118 | 801
327.95 K, 9150 kPa, x1 = 0.0242 | 333
327.95 K, 9160 kPa, x1 = 0.118 | 806
327.95 K, 9180 kPa, x1 = 0.0242 | 337
327.95 K, 9250 kPa, x1 = 0.0242 | 344
327.95 K, 9290 kPa, x1 = 0.1484 | 850
327.95 K, 9320 kPa, x1 = 0.0242 | 352
327.95 K, 9320 kPa, x1 = 0.086 | 724
327.95 K, 9400 kPa, x1 = 0.0242 | 359
327.95 K, 9470 kPa, x1 = 0.0242 | 369
327.95 K, 9470 kPa, x1 = 0.118 | 812
327.95 K, 9540 kPa, x1 = 0.0242 | 378
327.95 K, 9620 kPa, x1 = 0.0242 | 387
327.95 K, 9690 kPa, x1 = 0.0242 | 397
327.95 K, 9720 kPa, x1 = 0.086 | 740
327.95 K, 9750 kPa, x1 = 0.1484 | 856
327.95 K, 9760 kPa, x1 = 0.118 | 818
327.95 K, 9770 kPa, x1 = 0.0242 | 407
327.95 K, 9860 kPa, x1 = 0.0242 | 418
327.95 K, 9950 kPa, x1 = 0.0242 | 430
327.95 K, 9990 kPa, x1 = 0.086 | 750
327.95 K, 10040 kPa, x1 = 0.0242 | 442
327.95 K, 10120 kPa, x1 = 0.0242 | 453
327.95 K, 10240 kPa, x1 = 0.118 | 827
327.95 K, 10240 kPa, x1 = 0.1484 | 862
327.95 K, 10400 kPa, x1 = 0.086 | 762
327.95 K, 10740 kPa, x1 = 0.086 | 772
327.95 K, 10740 kPa, x1 = 0.118 | 835
327.95 K, 10770 kPa, x1 = 0.1484 | 868
327.95 K, 11180 kPa, x1 = 0.086 | 782
327.95 K, 11220 kPa, x1 = 0.118 | 842
327.95 K, 11260 kPa, x1 = 0.1484 | 873
327.95 K, 11650 kPa, x1 = 0.086 | 792
327.95 K, 11720 kPa, x1 = 0.118 | 849
327.95 K, 11760 kPa, x1 = 0.1484 | 878
327.95 K, 12200 kPa, x1 = 0.118 | 855
327.95 K, 12210 kPa, x1 = 0.086 | 802
327.95 K, 12260 kPa, x1 = 0.1484 | 883
327.95 K, 12680 kPa, x1 = 0.118 | 861
327.95 K, 12750 kPa, x1 = 0.086 | 812
327.95 K, 12800 kPa, x1 = 0.1484 | 888
327.95 K, 13200 kPa, x1 = 0.086 | 819
327.95 K, 13310 kPa, x1 = 0.1484 | 893
327.95 K, 13320 kPa, x1 = 0.118 | 868
327.95 K, 13680 kPa, x1 = 0.086 | 826
327.95 K, 13780 kPa, x1 = 0.118 | 873
327.95 K, 13800 kPa, x1 = 0.1484 | 897
327.95 K, 14170 kPa, x1 = 0.086 | 833
327.95 K, 14240 kPa, x1 = 0.1484 | 901
327.95 K, 14310 kPa, x1 = 0.118 | 879
327.95 K, 14710 kPa, x1 = 0.086 | 840
327.95 K, 14780 kPa, x1 = 0.1484 | 905
327.95 K, 14800 kPa, x1 = 0.118 | 884
327.95 K, 15160 kPa, x1 = 0.086 | 846
327.95 K, 15260 kPa, x1 = 0.118 | 888
327.95 K, 15300 kPa, x1 = 0.1484 | 909
327.95 K, 15660 kPa, x1 = 0.086 | 852
327.95 K, 15740 kPa, x1 = 0.118 | 892
327.95 K, 15860 kPa, x1 = 0.1484 | 913
327.95 K, 16180 kPa, x1 = 0.086 | 858
327.95 K, 16330 kPa, x1 = 0.118 | 897
327.95 K, 16560 kPa, x1 = 0.1484 | 918
328.15 K, 9640 kPa, x1 = 0.0481 | 532
328.15 K, 9710 kPa, x1 = 0.0481 | 543
328.15 K, 9800 kPa, x1 = 0.0481 | 556
328.15 K, 9910 kPa, x1 = 0.0481 | 570
328.15 K, 10030 kPa, x1 = 0.0481 | 585
328.15 K, 10180 kPa, x1 = 0.0481 | 600
328.15 K, 10340 kPa, x1 = 0.0481 | 615
328.15 K, 10540 kPa, x1 = 0.0481 | 632
328.15 K, 10720 kPa, x1 = 0.0481 | 645
328.15 K, 10940 kPa, x1 = 0.0481 | 659
328.15 K, 11190 kPa, x1 = 0.0481 | 673
328.15 K, 11350 kPa, x1 = 0.0481 | 681
332.85 K, 9040 kPa, x1 = 0.0242 | 282
332.85 K, 9110 kPa, x1 = 0.0242 | 287
332.85 K, 9180 kPa, x1 = 0.1484 | 814
332.85 K, 9200 kPa, x1 = 0.0242 | 292
332.85 K, 9270 kPa, x1 = 0.0242 | 298
332.85 K, 9350 kPa, x1 = 0.0242 | 305
332.85 K, 9430 kPa, x1 = 0.0242 | 311
332.85 K, 9520 kPa, x1 = 0.0242 | 318
332.85 K, 9620 kPa, x1 = 0.118 | 768
332.85 K, 9620 kPa, x1 = 0.1484 | 821
332.85 K, 9640 kPa, x1 = 0.0242 | 329
332.85 K, 9720 kPa, x1 = 0.0242 | 336
332.85 K, 9810 kPa, x1 = 0.0242 | 344
